The structures appear in SMILES notation.

The target of the first assay is T1, human TPO receptor (hTPOR) (Homo sapiens, UniProt P40238).
T1 construct: expressed in transfected cells; host or cells: BaF-B03 (murine IL-3 dependent cell line)
T1 sequence (P40238 26-635): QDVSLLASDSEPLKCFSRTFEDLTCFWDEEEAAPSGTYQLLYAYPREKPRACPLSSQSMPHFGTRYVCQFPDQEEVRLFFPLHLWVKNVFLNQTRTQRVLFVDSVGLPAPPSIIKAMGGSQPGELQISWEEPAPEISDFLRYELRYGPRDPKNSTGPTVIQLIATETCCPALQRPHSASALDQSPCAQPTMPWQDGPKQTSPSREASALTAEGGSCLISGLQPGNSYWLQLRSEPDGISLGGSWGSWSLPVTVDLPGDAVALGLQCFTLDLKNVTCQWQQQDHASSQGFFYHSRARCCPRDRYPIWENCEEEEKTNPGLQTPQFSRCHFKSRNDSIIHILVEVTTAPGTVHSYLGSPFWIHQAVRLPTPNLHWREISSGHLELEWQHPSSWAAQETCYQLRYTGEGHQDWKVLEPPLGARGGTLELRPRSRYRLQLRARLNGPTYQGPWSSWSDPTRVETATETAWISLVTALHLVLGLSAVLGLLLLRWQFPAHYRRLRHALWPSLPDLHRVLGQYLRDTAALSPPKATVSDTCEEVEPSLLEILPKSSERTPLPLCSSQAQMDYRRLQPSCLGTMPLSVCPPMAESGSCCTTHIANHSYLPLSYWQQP
As to the kind of experiment: Thrombopoietic activity: proliferation of TPO dependent BaF/hTPOR cells (WST-1, absorbance at 450 nm). The class given is cell-based. The settings on record: 20 h + 4 h WST-1, ED50 = half concentration of the concentration showing the maximum thrombopoietic activity, Table 1. An excerpt:
The TPO dependent BaF/hTPOR cell line which was established by introducing human TPO receptor (hTPOR) into BaF-B03 cells according to Collins et al (J. Cell. Physiol., 137:293-298 (1988)) was used to test the thrombopoietic activity of the present compound. The DNA sequences and encoded peptide sequences for human hTPOR have been described by Vigon et al (Proc. Natl. Acad. Sci. USA, 89:5640-5644 (1992)). TPO dose not have any ability to support proliferation of interlukin-3 dependent parental cell line BaF-B03. BAF/hTPOR cells were maintained in RPMI medium and WEHI-3B conditioned medium as a source of murine interleukin-3 (IL-3). These cells were washed and resuspended in RPMI medium without a source of murine IL-3 and seeded into each well of 96-well microtiter plates at a density of 5×10^4 cells per well in the absence or presence of various concentration of hTPO or the present compound. After incubation at 37° C. for 20 hours in the 5% CO2 incubator, 10% WST-1 reagent (Takara Biomedicals, Japan) was added to each wells and the cells were further incubated for 4 hours. The absorbance at 450 nm was measured. Tables 1 and 2 exemplify the ED50 for tested compounds of the present invention, wherein the ED50 is the half concentration of the concentration showing the maximum thrombopoietic activity.
Background: Tetrazolium dyes change colour on reduction, which living cells bring about.
On to `CCC(CC)COCCCc1cccc(-c2csc(NC(=O)c3cc(F)c(/C=C(\C)C(=O)O)c(F)c3)n2)c1OC` [Compound B1848, (E)-3-[4-(4-{3-[3-(2-ethylbutyloxy)propyl]-2-methyloxyphenyl}thiazol-2-ylcarbamoyl)-2,6-difluorophenyl]-2-methylacrylic acid], for which the EC50 (in general, the concentration that produces a half-maximal response) came out at 15.9 nM.

Consider `CCCCOC(C)c1cccc(-c2csc(NC(=O)c3cc(Cl)c(/C=C(\C)C(=O)O)c(Cl)c3)n2)c1OC` (stereo not drawn) [Compound B1122, (E)-3-(4-{4-[3-(1-butyloxyethyl)-2-methyloxyphenyl]thiazol-2-ylcarbamoyl}-2,6-dichlorophenyl)-2-methylacrylic acid], for which the EC50 was determined as 8.25 nM.

For `CCCCC(OCCC)c1cccc(-c2csc(NC(=O)c3cc(Cl)c(C=C(C)C(=O)O)c(Cl)c3)n2)c1F` (stereo not drawn) [Compound B86, 3-(2,6-dichloro-4-{4-[2-fluoro-3-(1-n-propyloxypentyl)phenyl]thiazol-2-ylcarbamoyl}phenyl)-2-methylacrylic acid], the EC50 came out at 0.63 nM.

With `CCCCCCCCCCC(OC)c1cccc(-c2csc(NC(=O)c3cc(F)c(C=C(C)C(=O)O)c(F)c3)n2)c1F` (stereo not drawn) [Compound B47, 3-(2,6-difluoro-4-{4-[2-fluoro-3-(1-methyloxyundecyl)phenyl]thiazol-2-ylcarbamoyl}phenyl)-2-methylacrylic acid], the EC50 came out at 2.8 nM.

For `CCCCOCCCc1cccc2c1CCc1sc(NC(=O)c3cc(F)c(C=C(C)C(=O)O)c(F)c3)nc1-2` [Compound A5, 3-{4-[6-(3-n-butyloxypropyl)-4,5-dihydronaphto[1,2-d]thiazol-2-ylcabamoyl]-2,6-difluorophenyl}-2-methylacrylic acid], the EC50 stood at 1.91 nM.

Consider `CCC(CC)COCc1cccc(-c2csc(NC(=O)c3cc(Cl)c(/C=C(\OC)C(=O)O)c(Cl)c3)n2)c1OC` [Compound B2026, (Z)-3-(2,6-dichloro-4-{4-[3-(2-ethylbutyloxymethyl)-2-methyloxyphenyl]thiazol-2-ylcarbamoyl}phenyl)-2-methyloxyacrylic acid], for which the EC50 was found to be 12.6 nM.

For `CCOC(c1cccc(-c2csc(NC(=O)c3cc(F)c(C=C(C)C(=O)O)c(F)c3)n2)c1F)C(C)(C)C` (stereo not drawn) [Compound B10, 3-(2,6-difluoro-4-{4-[3-(1-ethyloxy-2,2-dimethylpropyl)-2-fluorophenyl]thiazol-2-ylcarbamoyl}phenyl)-2-methylacrylic acid], the EC50 came out at 1.9 nM.

Regarding `CCCCCOC(CCCC)c1cccc(-c2csc(NC(=O)c3cc(Cl)c(C=C(C)C(=O)O)c(Cl)c3)n2)c1F` (stereo not drawn) [Compound B70, 3-(2,6-dichloro-4-{4-[2-fluoro-3-(1-n-pentyloxypentyl)phenyl]thiazol-2-ylcarbamoyl}phenyl)-2-methylacrylic acid], the EC50 was found to be 0.43 nM.

Consider `C/C(=C\c1c(Cl)cc(C(=O)Nc2nc3c(s2)COc2c(CCC(C)(C)C)cccc2-3)cc1Cl)C(=O)O` [Compound A1317, (E)-3-{2,6-dichloro-4-[6-(3,3-dimethylbutyl)-4H-chromeno[4,3-d]thiazol-2-ylcabamoyl]phenyl}-2-methylacrylic acid], for which the EC50 came out at 15.1 nM.

For `CCCCCCOCCCc1cccc(-c2csc(NC(=O)c3cc(F)c(/C=C(\C)C(=O)O)c(F)c3)n2)c1OC` [Compound B505, (E)-3-(2,6-difluoro-4-{4-[3-(3-hexyloxypropyl)-2-methyloxyphenyl]thiazol-2-ylcarbamoyl}phenyl)-2-methylacrylic acid], the EC50 turned out to be 12 nM.

In the case of `CO/C(=C\c1c(Cl)cc(C(=O)Nc2nc(-c3cccc(COCC(C)(C)C)c3OC)cs2)cc1Cl)C(=O)O` [Compound B2022, (Z)-3-(2,6-dichloro-4-{4-[3-(2,2-dimethylpropyloxymethyl)-2-methyloxyphenyl]thiazol-2-ylcarbamoyl}phenyl)-2-methyloxyacrylic acid], the EC50 came to 15.6 nM.

Take `CCCCCCOC(CC)c1cccc(-c2csc(NC(=O)c3cc(Cl)c(C=C(C)C(=O)O)c(Cl)c3)n2)c1F` (stereo not drawn) [Compound B83, 3-(2,6-dichloro-4-{4-[2-fluoro-3-(1-n-hexyloxypropyl)phenyl]thiazol-2-ylcarbamoyl}phenyl)-2-methylacrylic acid]: the EC50 came to 0.72 nM.

`CCC(CCCc1cccc(-c2csc(NC(=O)c3cc(F)c(C=C(C)C(=O)O)c(F)c3)n2)c1F)OC` (stereo not drawn) [Compound B12, 3-(2,6-difluoro-4-{4-[2-fluoro-3-(4-methyloxyhexyl)phenyl]thiazol-2-ylcarbamoyl}phenyl)-2-methylacrylic acid]: the EC50 came to 2.1 nM.

For the compound `CCC(CC)COCCc1cccc(-c2csc(NC(=O)c3cc(F)c(/C=C(\C)C(=O)O)c(F)c3)n2)c1OC` [Compound B1959, (E)-3-[4-(4-{3-[2-(2-ethylbutyloxy)ethyl]-2-methyloxyphenyl}thiazol-2-ylcarbamoyl)-2,6-difluorophenyl]-2-methylacrylic acid], the EC50 amounted to 11.3 nM.

For the compound `CCCCCCC(OC)c1cccc(-c2csc(NC(=O)c3cc(F)c(C=C(C)C(=O)O)c(F)c3)n2)c1F` (stereo not drawn) [Compound B23, 3-(2,6-difluoro-4-{4-[2-fluoro-3-(1-methyloxyheptyl)phenyl]thiazol-2-ylcarbamoyl}phenyl)-2-methylacrylic acid], the EC50 came out at 1.23 nM.

Regarding `CCCCCCOC(c1cccc(-c2csc(NC(=O)c3cc(F)c(/C=C(\C)C(=O)O)c(F)c3)n2)c1OC)C1CCCCC1` (stereo not drawn) [Compound B519], the EC50 was found to be 1.03 nM.

Consider `COc1c(CCOCCCC(C)C)cccc1-c1csc(NC(=O)c2cc(F)c(/C=C(\C)C(=O)O)c(F)c2)n1` [Compound B1920, (E)-3-[2,6-difluoro-4-(4-{2-methyloxy-3-[2-(4-methylpentyloxy)ethyl]phenyl}thiazol-2-ylcarbamoyl)phenyl)-2-methylacrylic acid], for which the EC50 amounted to 14.5 nM.

Consider `COC(CCC(C)C)c1cccc(-c2csc(NC(=O)c3cc(Cl)c(C=C(C)C(=O)O)c(Cl)c3)n2)c1F` (stereo not drawn) [Compound B60, 3-(2,6-dichloro-4-{4-[2-fluoro-3-(1-methyloxy-4-methylpentyl)phenyl]thiazol-2-ylcarbamoyl}phenyl)-2-methylacrylic acid], for which the EC50 is 0.75 nM.

As for `CCC(CC)COCc1cccc(-c2csc(NC(=O)c3cc(Cl)c(/C=C(\C)C(=O)O)c(Cl)c3)n2)c1OC` [Compound B2025, (E)-3-(2,6-dichloro-4-{4-[3-(2-ethylbutyloxymethyl)-2-methyloxyphenyl]thiazol-2-ylcarbamoyl}phenyl)-2-methylacrylic acid], the EC50 turned out to be 3.2 nM.

The same assay, now with this note: 20 h + 4 h WST-1, ED50 = half concentration of the concentration showing the maximum thrombopoietic activity, Table 2.
For `CCCCCCCOc1cccc(-c2csc(NC(=O)c3cc(F)c(/C=C(\OC)C(=O)O)c(F)c3)n2)c1OC` [Compound B2000, (Z)-3-{2,6-difluoro-4-[4-(3-heptyloxy-2-methyloxyphenyl)thiazol-2-ylcarbamoyl]phenyl}-2-methyloxyacrylic acid], the EC50 is 20.5 nM.

Consider `CO/C(=C\c1c(F)cc(C(=O)Nc2nc(-c3cccc(CCCOCC(C)(C)C)c3)c(OC)s2)cc1F)C(=O)O` [Compound B1900, (Z)-3-[4-(4-{3-[3-(2,2-dimethylpropyloxy)propyl]phenyl}-5-methyloxythiazol-2-ylcarbamoyl)-2,6-difluorophenyl]-2-methyloxyacrylic acid], for which the EC50 stood at 23.2 nM.

On to `CO/C(=C\c1c(Cl)cc(C(=O)Nc2nc(-c3cccc(CCCOCC4CCCC4)c3OC)cs2)cc1Cl)C(=O)O` [Compound B1951, (Z)-3-(2,6-dichloro-4-{4-[3-(3-cyclopentylmethyloxypropyl)-2-methyloxyphenyl]thiazol-2-ylcarbamoyl}phenyl)-2-methyloxyacrylic acid], for which the EC50 is 22.3 nM.

In the case of `CO/C(=C\c1c(F)cc(C(=O)Nc2nc(-c3cccc(COCCC(C)(C)C)c3OC)cs2)cc1F)C(=O)O` [Compound B1935, (Z)-3-(4-{4-[3-(3,3-dimethylbutyloxymethyl)-2-methyloxyphenyl]thiazol-2-ylcarbamoyl}-2,6-difluorophenyl)-2-methyloxyacrylic acid], the EC50 worked out at 25.4 nM.

For the compound `CO/C(=C\c1c(Cl)cc(C(=O)Nc2nc(-c3cccc(COCCC(C)(C)C)c3OC)cs2)cc1Cl)C(=O)O` [Compound B1937, (Z)-3-(2,6-dichloro-4-{4-[3-(3,3-dimethylbutyloxymethyl)-2-methyloxyphenyl]thiazol-2-ylcarbamoyl}phenyl)-2-methyloxyacrylic acid], the EC50 was 23.1 nM.

Source of the values: patent US7601746B2 (Shionogi & Co., Ltd., priority 2003, dated 2009).
